Experiments:
[1] = Inhibition of MCT-1 in human A549 cells assessed as potentiation of 3-BP-mediated cytotoxicity by measuring decrease in cell viability incubated for 72 hrs in presence of 3-BP by MTT assay
[2] = Reversal of ABCC1-mediated multidrug resistance in human NCI-H69AR cells assessed as increase in doxorubicin-mediated cytotoxicity incubated for 72 hrs in presence of doxorubicin by MTT assay
[3] = Reversal of ABCG2 (unknown origin)-mediated multidrug resistance transfected in dog MDCK-II-BCRP cells assessed as increase in SN-38-mediated cytotoxicity incubated for 72 hrs in presence of SN-38 by MTT assay
[4] = Reversal of ABCB1-mediated multidrug resistance in human A2780 ADR cells assessed as increase in doxorubicin-mediated cytotoxicity incubated for 72 hrs in presence of doxorubicin by MTT assay

Row | SMILES | IC50 [1] | EC50 [2] | EC50 [3] | EC50 [4]
1 | O=C(Cn1nc(C(=O)Nc2ccccn2)c2ccccc21)Nc1cc(Cl)ccc1Cl | 1890 nM | 33.1 µM | 326 nM | 89 nM
2 | O=C(Cn1nc(C(=O)Nc2cccnc2)c2ccccc21)Nc1ccc(Cl)cc1 | 3320 nM | 6.86 µM | 1050 nM | 4670 nM
3 | COc1cccc(NC(=O)c2nn(CC(=O)Nc3ccccc3OC)c3ccccc23)c1 |  | 5.53 µM | 603 nM | 3340 nM
4 | COc1cccc(NC(=O)Cn2nc(C(=O)Nc3cccc(OC)c3)c3ccccc32)c1 |  | 8.55 µM |  | 2010 nM

Source: BindingDB's records for PubMed 39892094 (University of Lubeck and University Medical Center …)
